# Data reported in US8871933B2, “Purified pyrroloquinolinyl-pyrrolidine-2,5-dione compositions and methods for preparing and using same” (ArQule, Inc., priority 2009, dated 2014).
# How the values were obtained:
# [1] = tested on: MDA-MB-231 cells or MIA PaCa-2 (PACA-2) cells; test: Cell survival in six-well plates, Wright-Giemsa stain; assay type: cell-based; conditions: Homo sapiens; 0.1-2 μM, 10-15 days; MDA-MB-231 or Paca-2 cells, cell line of the IC50 not stated
# Method: Exponentially growing MDA-MB-231 cells or MIA PaCa-2 (also known as PACA-2) cells were seeded at 1,000 cells per well in six-well plates and allowed to attach for 24 hours. MDA-MB-231 and MIA PaCa-2 cells were cultured in DMEM supplemented with 10% (v/v) fetal bovine serum (FBS) and 5 ml Penicillin/Streptomycin at 37° C. in 5% CO2. MDA-MB-231 and MIA PaCa-2 were established in estrogen receptor-negative human breast cancer and pancreatic carcinoma cell lines, respectively. (±)-cis-3-(5,6-dihydro-4H-pyrrolo[3,2,1-ij]quinolin-1-yl)-4-(1H-indol-3-yl)pyrrolidine-2,5-dione or (±)-trans-3-(5,6-dihydro-4H-pyrrolo[3,2,1-ij]quinolin-1-yl)-4-(1H-indol-3-yl)pyrrolidine-2,5-dione were each dissolved at a concentration of 10 mM in DMSO, and separately added to cells at a concentration of 0.1, 0.25, 0.5, 1 or 2 μM. Control plates received DMSO alone, at the same percentage of total culture volume as that administered in conjunction with the highest concentration of drug. Cell cultures were observed daily for 10-15 days, then fixed and stained with modified Wright-Giemsa stain (Sigma). Treatment with (±)-cis-3-(5,6-dihydro-4H-pyrrolo[3,2,1-ij]quinolin-1-yl)-4-(1H-indol-3-yl)pyrrolidine-2,5-dione or (±)-trans-3-(5,6-dihydro-4H-pyrrolo[3,2,1-ij]quinolin-1-yl)-4-(1H-indol-3-yl)pyrrolidine-2,5-dione results in cell death of MDA-MB-231 cells or Paca-2 cells. See, e.g., FIG. 2.
# [2] = target: Recombinant Protein Kinase C; test: Protein Kinase C kinase assay (Histone H1, 32P-ATP, autoradiography); assay type: biochemical; set-up: dose or concentration left out as unconfirmed; conditions: for 15 minutes at room temperature
# Method: Recombinant Protein Kinase C (Calbiochem) (100 ng) was incubated with (±)-cis-3-(5,6-dihydro-4H-pyrrolo[3,2,1-ij]quinolin-1-yl)-4-(1H-indol-3-yl)pyrrolidine-2,5-dione or (±)-trans-3-(5,6-dihydro-4H-pyrrolo[3,2,1-ij]quinolin-1-yl)-4-(1H-indol-3-yl)pyrrolidine-2,5-dione at […] for 15 minutes at room temperature. Subsequently, a radioactive labeling mix in kinase buffer (20 mM Tris-HCl pH 7.5, 10 mM MgCl2) containing 20 μM ATP, 0.2 μCi/μl γ^32P-ATP, 0.2 μg/μl Histone H1 (Upstate Biotechnology/Millipore, Bedford, Mass.) was added to each sample. The kinase reaction was carried out for 5 minutes at room temperature. Reaction products were analyzed by 12% SDS-PAGE and autoradiography.
# c-Met = c-Met (Homo sapiens, UniProt P08581); test: c-Met phosphorylation in MDA-MB-231 cells, basal and HGF-induced (Western blot); assay type: cell-based; set-up: Whole cell extracts were prepared in lysis buffer; endogenous in cells; host or cells: MDA-MB-231; conditions: 20 μM
# Method: MDA-MB-231 cells were serum-deprived overnight (16 hours) in the absence or in the presence of the indicated concentrations of the separate enantiomers (+)-trans-3-(5,6-dihydro-4H-pyrrolo[3,2,1-ij]quinolin-1-yl)-4-(1H-indol-3-yl)pyrrolidine-2,5-dione and (−)-trans-3-(5,6-dihydro-4H-pyrrolo[3,2,1-ij]quinolin-1-yl)-4-(1H-indol-3-yl)pyrrolidine-2,5-dione. Cells were treated with 100 ng/ml recombinant human Hepatocyte Growth Factor/Scatter Factor (HGF/SF) (R&D Systems #294-HG) for 10 minutes. Whole cell extracts were prepared in lysis buffer (20 mM Tris-HCl pH 7.5, 150 mM NaCl, 1 mM Na2EDTA, 1 mM EGTA, 1% Triton X-100, 2.5 mM sodium pyrophosphate, 1 mM beta-glycerophosphate, 1 mM Na3VO4, 1 μg/ml leupeptin, 1 mM phenylmethylsulfonyl fluoride) and sonicated. Protein concentration was measured by Bradford assay using the BioRad reagent (BioRad, Hercules, Calif.), according to the manufacturer's directions. Samples ([…] of protein) were resolved by 8% SDS-PAGE under reducing conditions and transferred onto a PVDF membrane (BioRad). […] Proteins were detected by incubation overnight at 4° C. in TBS-T with 5% milk and either a polyclonal antibody against phosphorylated c-Met (#3121) or a monoclonal antibody against β-actin (A-5441) (Sigma), which was used as a control for total protein loading. […]
# MDA-MB-231 cells = test: Colony formation / surviving fraction assay; assay type: cell-based; conditions: Homo sapiens, two days incubation, colonies counted two weeks later, read-out: IC50 (surviving fraction equaled 50)
# Method: MDA-MB-231 cells (ATCC #HTB-26), grown in DMEM plus 15% heat inactivated fetal bovine serum plus 10 mM HEPES pH 7.5, were plated in 60 mm^2 plates (2×10^5 cells per plate). After two days candidate compounds in DMSO at various concentrations were diluted in media and added to individual plates such that the final DMSO concentration in the cell culture media was 0.1%. After two days incubation the culture was trypsinized, cells were washed with media, counted using a hemocytometer and 500 cells, including cell bodies, were plated in 100 mm^2 plates in media. Two weeks later the media was removed and the cell colonies were fixed with methanol for 10 minutes, stained with 1% crystal violet for 10 minutes, washed with water and air dried. Cell colonies were visually counted when there were greater then 50 cells present per colony. Plating efficiency was defined as the average number of colonies formed divided by 500. The surviving fraction was defined as the plating efficiency of a candidate compound divided by the plating efficiency of DMSO multiplied by 100. For candidate compound titrations, the IC50 value was determined by fitting the equation y=Ae^Bx to the data points and extrapolating the concentration where surviving fraction equaled 50. […]
# physchem = assay type: physicochemical
# Method: Form 1 and Form 2 have different equilibrium solubilities: Form 2=0.61 mg/mL and Form 1=0.51 mg/mL.
# [3] = Interconversion experiments (thermodynamic stability of polymorphs); assay type: physicochemical
# Method: Form 1 is orthorhombic and contains four molecules of (−)-trans-3-(5,6-dihydro-4H-pyrrolo[3,2,1-ij]quinolin-1-yl)-4-(1H-indol-3-yl)pyrrolidine-2,5-dione per cell. Form 1 has a melting point of ˜218° C. recorded in DSC (See, FIG. 16).
# The two polymorphs can be interconverted when proper conditions are used to control the crystallization process. Form 2 can be obtained by dissolving Form 1 in methanol, seeding with Form 2 and evaporating the mixture to dryness by rotary evaporation. The successful conversion was determined to be Form 2 by IR analysis and corroborated by XRPD analysis.
# [4] = Storage stability of Form 2; assay type: physicochemical; conditions: 40° C./75% RH for up to six months and 25° C./60% RH for up to 12 months; multiple batches
# Sequence of c-Met (P08581 25-1390): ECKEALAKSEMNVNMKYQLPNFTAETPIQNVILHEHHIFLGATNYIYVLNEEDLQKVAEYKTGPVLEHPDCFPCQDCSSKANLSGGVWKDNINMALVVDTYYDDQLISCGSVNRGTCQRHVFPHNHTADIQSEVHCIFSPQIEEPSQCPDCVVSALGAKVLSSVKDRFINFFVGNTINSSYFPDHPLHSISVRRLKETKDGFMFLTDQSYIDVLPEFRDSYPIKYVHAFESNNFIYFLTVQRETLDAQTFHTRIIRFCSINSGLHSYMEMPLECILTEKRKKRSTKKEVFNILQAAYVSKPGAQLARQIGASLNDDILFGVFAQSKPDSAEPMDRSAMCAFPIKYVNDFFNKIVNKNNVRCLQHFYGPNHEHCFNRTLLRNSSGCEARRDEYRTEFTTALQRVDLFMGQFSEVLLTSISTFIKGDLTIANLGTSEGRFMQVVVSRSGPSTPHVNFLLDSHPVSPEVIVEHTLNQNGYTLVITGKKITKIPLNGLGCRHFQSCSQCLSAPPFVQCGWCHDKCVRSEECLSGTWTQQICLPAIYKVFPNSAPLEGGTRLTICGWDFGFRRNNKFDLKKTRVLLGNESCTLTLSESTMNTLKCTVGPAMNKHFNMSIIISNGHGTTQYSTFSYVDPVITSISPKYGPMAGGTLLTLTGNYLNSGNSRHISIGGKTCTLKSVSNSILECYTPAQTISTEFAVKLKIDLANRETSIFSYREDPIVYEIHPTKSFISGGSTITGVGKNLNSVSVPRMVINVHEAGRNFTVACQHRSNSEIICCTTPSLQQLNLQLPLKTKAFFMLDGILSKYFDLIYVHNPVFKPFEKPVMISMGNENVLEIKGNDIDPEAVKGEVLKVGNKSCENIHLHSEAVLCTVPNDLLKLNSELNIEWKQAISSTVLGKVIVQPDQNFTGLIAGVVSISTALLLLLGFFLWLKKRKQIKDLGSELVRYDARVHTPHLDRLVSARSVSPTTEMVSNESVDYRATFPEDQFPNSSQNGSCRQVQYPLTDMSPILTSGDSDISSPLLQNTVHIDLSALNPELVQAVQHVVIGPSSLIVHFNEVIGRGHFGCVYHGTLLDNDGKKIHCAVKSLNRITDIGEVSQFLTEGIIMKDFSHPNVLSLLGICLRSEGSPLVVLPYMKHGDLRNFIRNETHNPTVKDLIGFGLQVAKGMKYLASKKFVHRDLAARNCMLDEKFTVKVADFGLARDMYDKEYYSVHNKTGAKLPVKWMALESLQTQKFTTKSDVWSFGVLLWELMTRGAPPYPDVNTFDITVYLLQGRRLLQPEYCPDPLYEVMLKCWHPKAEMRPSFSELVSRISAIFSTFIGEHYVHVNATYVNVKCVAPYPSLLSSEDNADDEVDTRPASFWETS
structure (smiles),measurement,setting,value
"O=C1NC(=O)[C@@H](c2cn3c4c(cccc24)CCC3)[C@H]1c1c[nH]c2ccccc12 (racemic) [(±)-cis-3-(5,6-dihydro-4H-pyrrolo[3,2,1-ij]quinolin-1-yl)-4-(1H-indol-3-yl)pyrrolidine-2,5-dione]",IC50,[1],500 nM
same,kinase activity in comparison to treatment with carrier alone,[2],did not reduce kinase activity
"O=C1NC(=O)[C@@H](c2cn3c4c(cccc24)CCC3)[C@@H]1c1c[nH]c2ccccc12 (racemic) [(±)-trans-3-(5,6-dihydro-4H-pyrrolo[3,2,1-ij]quinolin-1-yl)-4-(1H-indol-3-yl)pyrrolidine-2,5-dione]",IC50,[1],500 nM
same,kinase activity in comparison to treatment with carrier alone,[2],did not reduce kinase activity
"O=C1NC(=O)[C@@H](c2cn3c4c(cccc24)CCC3)[C@@H]1c1c[nH]c2ccccc12 [(+)-trans-3-(5,6-dihydro-4H-pyrrolo[3,2,1-ij]quinolin-1-yl)-4-(1H-indol-3-yl)pyrrolidine-2,5-dione]",inhibitory effect on c-Met phosphorylation,c-Met,only a minimum inhibitory effect
same,IC50,MDA-MB-231 cells,4100 nM
"O=C1NC(=O)[C@@H](c2cn3c4c(cccc24)CCC3)[C@@H]1c1c[nH]c2ccccc12 [Form 1, (−)-trans-3-(5,6-dihydro-4H-pyrrolo[3,2,1-ij]quinolin-1-yl)-4-(1H-indol-3-yl)pyrrolidine-2,5-dione]",equilibrium solubilities,physchem,0.51 mg/mL
same,thermodynamic stability,[3],more thermodynamically stable than Form 2
"O=C1NC(=O)[C@@H](c2cn3c4c(cccc24)CCC3)[C@@H]1c1c[nH]c2ccccc12 [Form 2, (−)-trans-3-(5,6-dihydro-4H-pyrrolo[3,2,1-ij]quinolin-1-yl)-4-(1H-indol-3-yl)pyrrolidine-2,5-dione]",change in crystalline form or purity upon storage,[4],No discernable change in crystalline form or purity
same,solubility thermodynamic,"physchem; thermodynamic from solid, equilibrium solubilities",610 µg/mL
